One block for each compound: values may come before it. Active and inactive are the calls of the source. The rule behind the calls is not given here.
How the values were obtained:
MCF7 [1] = test: Antiproliferative activity against human MCF7 cells assessed as cell viability in light irradiation and measured after 48 hrs by MTT assay; type: functional, cell-based; conditions: MCF7, light or radiation study
B16-F10 [2] = test: Antiproliferative activity against mouse B16-F10 cells assessed as cell viability in light irradiation and measured for 48 hrs by MTT assay; type: functional, cell-based; conditions: B16-F10, light or radiation study
MCF7 [3] = test: Antiproliferative activity against human MCF7 cells assessed as cell viability in dark incubated for 48 hrs by MTT assay; type: functional, cell-based; conditions: MCF7, 48 h
B16-F10 [4] = test: Antiproliferative activity against mouse B16-F10 cells assessed as cell viability in dark incubated for 48 hrs by MTT assay; type: functional, cell-based; conditions: B16-F10, 48 h
[5] = Toxicity in BALB/c nude mouse xenografted with human MCF7 cells assessed as effect on body weight at 5 mg/kg, ip administered once daily for 15 days in presence of light irradiation; type: organism-based; conditions: in vivo, 360 h, time 15 day
MCF7 [6] = test: Induction of cell membrane permeability in human MCF7 cells at 5 uM in presence of light irradiation by confocal microscopy analysis; type: functional
MCF7 [7] = test: Induction of ROS generation in human MCF7 cells assessed as increase in ROS level at 5 uM for 10 mins by DCFH-DA staining-based flow cytometry; type: functional
MCF7 [8] = test: Potentiation of MCLOP induced antiproliferative activity against human MCF7 cells assessed as cell survial rate in presence of light irradiation at 10 uM and measured after 48 hrs by MTT assay; type: functional
MCF7 [9] = test: Cytotoxicity against human MCF7 cells assessed as cell viability at 10 uM incubated for 48 hrs by MTT assay; type: toxicity, cell-based; conditions: mcf7, 48 h
[10] = Octanol-water partition coefficient, logP of the compound; type: physicochemical
MCF7 [11] = test: Potentiation of MCLOP induced cell membrane permeability in human MCF7 cells at 5 uM in presence of light irradiation by confocal microscopy analysis; type: functional
MCF7 [12] = test: Potentiation of MCLOP induced ROS generation in human MCF7 cells assessed as increase in ROS level at 5 uM for 10 mins by DCFH-DA staining-based flow cytometry; type: functional
[13] = Toxicity in BALB/c nude mouse xenografted with human MCF cells assessed as MCLOP induced morphological changes in lung at 5 mg/kg, ip administered once daily for 15 days by H and E staining based analysis; type: organism-based; conditions: in vivo, 360 h, time 15 day
[14] = Toxicity in BALB/c nude mouse xenografted with human MCF cells assessed as MCLOP induced morphological changes in spleen at 5 mg/kg, ip administered once daily for 15 days by H and E staining based analysis; type: organism-based; conditions: in vivo, 360 h, time 15 day
MCF7 [15] = test: Potentiation of MCLOP induced antitumor activity against human MCF7 cells xenografted in Balb/c nude mouse assessed as tumor growth inhibition at 5 mg/kg, ip administered once daily for 15 days in presence of light irradiation; type: functional, organism-based; conditions: time 15.0 day
[16] = Toxicity in BALB/c nude mouse xenografted with human MCF cells assessed as MCLOP induced morphological changes in liver at 5 mg/kg, ip administered once daily for 15 days by H and E staining based analysis; type: organism-based; conditions: in vivo, 360 h, time 15 day
MCF7 [17] = test: Potentiation of MCLOP induced autophagy in human MCF7 cells assessed as induction of autophagosomes formation by measuring increase LC3 puncta at 5 uM measured after 24 hrs by confocal microscopic analysis; type: functional, cell-based
MCF7 [18] = test: Potentiation of MCLOP induced increase in HClO level in human MCF7 cells by fluorescence method; type: functional
MCF7 [19] = test: Potentiation of MCLOP induced cell membrane permeability in human MCF7 cells at 5 uM in dark by confocal microscopy analysis; type: functional
[20] = Effect on HClO level in human MCF7 cells by fluorescence method; type: functional
[21] = Toxicity in BALB/c nude mouse xenografted with human MCF cells assessed as MCLOP induced morphological changes in heart at 5 mg/kg, ip administered once daily for 15 days by H and E staining based analysis; type: organism-based; conditions: in vivo, 360 h, time 15 day
MCF7 [22] = test: Potentiation of MCLOP induced autophagy in human MCF7 cells assessed as decrease in p62 protein level at 5 uM measured after 24 hrs by western blot analysis; type: functional, cell-based
MCF7 [23] = test: Potentiation of MCLOP induced autophagy in human MCF7 cells assessed as increase in […] protein ratio level at 5 uM and measured after 24 hrs by western blot analysis; type: functional, cell-based
[24] = Toxicity in BALB/c nude mouse xenografted with human MCF cells assessed as MCLOP induced morphological changes in kidney at 5 mg/kg, ip administered once daily for 15 days by H and E staining based analysis; type: organism-based; conditions: in vivo, 360 h, time 15 day

- IC50 (MCF7 [1]): 10.6 µM
- IC50 (B16-F10 [2]): 5.48 µM
- IC50 (MCF7 [3]): 14.6 µM
- IC50 (B16-F10 [4]): 7.02 µM
Compound: CN(C)c1ccc2nc3ccc(N(C)C)cc3[s+]c2c1 [METHYLENE BLUE ANHYDROUS]

- IC50 (MCF7 [1]): 12.7 µM
- IC50 (B16-F10 [2]): 30.8 µM
- IC50 (MCF7 [3]): > 40 µM
- IC50 (B16-F10 [4]): > 40 µM
Compound: CN(C)c1ccc2c(c1)Sc1cc(N(C)C)ccc1N2C(=O)NCCN1C(=O)c2cccc3cc([N+](=O)[O-])cc(c23)C1=O
- Activity [5]: Non-Toxic
- fold change (FC) (MCF7 [6]): 4.1
- fold change (FC) (MCF7 [7]): 3.1

- logP [10]: 2.04
Compound: COc1cc(/C=C/C(=O)CC(=O)/C=C/c2ccc(O)c(OC)c2)ccc1O [CURCUMIN]
- Activity (MCF7 [8]): 20%
- Activity (MCF7 [9]): Non-Toxic

- logP [10]: 0.91
Compound: COc1cc(/C=C/C(=O)CC(=O)/C=C/c2ccc(OC(=O)CCCC[C@@H]3SC[C@@H]4NC(=O)N[C@@H]43)c(OC)c2)ccc1O
- fold change (FC) (MCF7 [11]): 5.3
- fold change (FC) (MCF7 [12]): 5.6
- Activity [13]: Non-Toxic
- Activity [14]: Non-Toxic
- Activity (MCF7 [15]): Active
- Activity [5]: Non-Toxic
- Activity [16]: Non-Toxic
- Activity (MCF7 [17]): Active
- fold change (FC) (MCF7 [18]): 2.2
- fold change (FC) (MCF7 [19]): 3
- fold change (FC) [20]: 2.3
- Activity [21]: Non-Toxic
- Activity (MCF7 [22]): Active
- Activity (MCF7 [7]; DDE = dose-dependent effect): Dde
- Activity (MCF7 [23]): Active
- Activity [24]: Non-Toxic

Reference: ChEMBL document CHEMBL5154663, “Biotinylated curcumin as a novel chemosensitizer enhances naphthalimide-induced autophagic cell death in breast cancer cells” (Eur J Med Chem, 2022)
